Data from ChEMBL document CHEMBL4765277, “Design, synthesis and biological evaluation of novel indazole-based derivatives as potent HDAC inhibitors via fragment-based virtual screening” (Eur J Med Chem, 2020).
Calls of active or inactive are those of the source. No cut-off for these calls is given here.

Experiments:
MCF7 = experiment: cells; settings: Homo sapiens, MCF7, 72 h
Description: Antiproliferative activity against human MCF7 cells assessed as reduction in cell viability after 72 hrs by MTT assay

Histone deacetylase 1 = Histone deacetylase 1 (Homo sapiens, UniProt Q13547); experiment: Inhibition of recombinant human C-terminal His/FLAG-tagged HDAC1 (1 to end residues) expressed in sf9 insect cells using Boc-Lys(Ac)-AMC as substrate incubated for 60 mins by fluorescence assay
Chain of Histone deacetylase 1 (Q13547 whole entry): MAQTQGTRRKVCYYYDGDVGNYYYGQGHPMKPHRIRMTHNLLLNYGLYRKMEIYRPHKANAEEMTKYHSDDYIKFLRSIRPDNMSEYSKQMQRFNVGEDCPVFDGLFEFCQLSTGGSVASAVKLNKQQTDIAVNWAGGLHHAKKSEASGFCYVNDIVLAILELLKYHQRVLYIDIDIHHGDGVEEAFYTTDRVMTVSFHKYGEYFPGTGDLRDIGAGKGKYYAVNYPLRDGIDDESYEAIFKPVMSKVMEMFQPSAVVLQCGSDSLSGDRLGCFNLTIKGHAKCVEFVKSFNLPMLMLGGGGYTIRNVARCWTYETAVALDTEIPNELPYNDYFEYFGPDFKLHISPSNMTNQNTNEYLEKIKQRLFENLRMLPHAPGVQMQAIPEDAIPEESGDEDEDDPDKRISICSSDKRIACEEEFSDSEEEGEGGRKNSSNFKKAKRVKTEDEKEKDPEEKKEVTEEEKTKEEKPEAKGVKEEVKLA

Histone deacetylase 2 = Histone deacetylase 2 (Homo sapiens, UniProt Q92769); experiment: Inhibition of recombinant human C-terminal His-tagged HDAC2 (1 to end residues) expressed in sf9 insect cells using Boc-Lys(Ac)-AMC as substrate incubated for 60 mins by fluorescence assay
Chain of Histone deacetylase 2 (Q92769 whole entry): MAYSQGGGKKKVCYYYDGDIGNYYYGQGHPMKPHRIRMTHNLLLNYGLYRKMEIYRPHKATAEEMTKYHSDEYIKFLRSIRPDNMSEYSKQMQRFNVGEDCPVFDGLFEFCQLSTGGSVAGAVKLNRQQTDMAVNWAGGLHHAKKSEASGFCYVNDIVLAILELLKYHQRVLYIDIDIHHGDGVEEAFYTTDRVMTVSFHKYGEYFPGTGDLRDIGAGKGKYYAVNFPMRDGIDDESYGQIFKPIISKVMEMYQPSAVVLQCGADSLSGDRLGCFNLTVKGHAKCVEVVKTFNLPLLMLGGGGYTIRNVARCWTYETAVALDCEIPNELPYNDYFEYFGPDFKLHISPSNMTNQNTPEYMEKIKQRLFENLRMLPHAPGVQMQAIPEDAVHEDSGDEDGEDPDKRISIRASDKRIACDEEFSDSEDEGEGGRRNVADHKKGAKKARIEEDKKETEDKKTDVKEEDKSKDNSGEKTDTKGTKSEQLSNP

HeLa = experiment: cells; assay type: functional, cell-based; settings: Homo sapiens, 72 h
Description: Antiproliferative activity against human HeLa cells assessed as reduction in cell viability after 72 hrs by MTT assay

HCT-116 [1] = experiment: Antiproliferative activity against human HCT-116 cells assessed as reduction in cell viability after 72 hrs by MTT assay; assay type: functional, cell-based; settings: HCT-116, 72 h
Histone deacetylase 8 = target: T1, Histone deacetylase 8 (Homo sapiens, UniProt Q9BY41); experiment: Inhibition of recombinant human full length C-terminal His-tagged HDAC8 expressed in sf9 insect cells using Boc-Lys(TFA)-AM as substrate incubated for 60 mins by fluorescence assay
T1 sequence (Q9BY41 whole entry): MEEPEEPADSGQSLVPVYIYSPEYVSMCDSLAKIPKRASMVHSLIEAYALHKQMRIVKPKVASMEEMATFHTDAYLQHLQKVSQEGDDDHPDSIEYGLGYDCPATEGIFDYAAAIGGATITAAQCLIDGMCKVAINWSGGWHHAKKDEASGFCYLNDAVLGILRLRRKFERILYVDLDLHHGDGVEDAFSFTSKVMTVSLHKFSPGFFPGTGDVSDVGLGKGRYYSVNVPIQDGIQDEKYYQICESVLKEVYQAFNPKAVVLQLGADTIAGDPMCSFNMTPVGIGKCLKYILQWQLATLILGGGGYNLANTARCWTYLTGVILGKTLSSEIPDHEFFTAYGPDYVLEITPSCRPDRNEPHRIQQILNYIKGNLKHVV

HCT-116 [2] = experiment: Induction of cell cycle arrest in human HCT116 cells assessed as cell accumulation at G2/M phase at 3 uM after 24 hrs by Rnase/PI staining based flow cytometric analysis (reference value: 26.4%); assay type: functional
HCT-116 [3] = experiment: Induction of apoptosis in human HCT-116 cells assessed as late apoptotic cells at 3 uM after 24 hrs by Annexin V-FITC/PI staining based flow cytometric analysis (reference value: 5.14%); assay type: functional
HCT-116 [4] = experiment: Induction of apoptosis in human HCT-116 cells assessed as necrotic cells at 3 uM after 24 hrs by Annexin V-FITC/PI staining based flow cytometric analysis (reference value: 0.51%); assay type: functional
HCT-116 [5] = experiment: Induction of apoptosis in human HCT-116 cells assessed as early apoptotic cells at 10 uM after 24 hrs by Annexin V-FITC/PI staining based flow cytometric analysis (reference value: 4.01%); assay type: functional
HCT-116 [6] = experiment: Induction of apoptosis in human HCT-116 cells after 24 hrs by Annexin V-FITC/PI staining based flow cytometric analysis; assay type: functional, cell-based
HCT-116 [7] = experiment: Induction of apoptosis in human HCT-116 cells assessed as late apoptotic cells at 1 uM after 24 hrs by Annexin V-FITC/PI staining based flow cytometric analysis (reference value: 5.14%); assay type: functional
HCT-116 [8] = experiment: Induction of apoptosis in human HCT-116 cells assessed as late apoptotic cells at 10 uM after 24 hrs by Annexin V-FITC/PI staining based flow cytometric analysis (reference value: 5.14%); assay type: functional
HCT-116 [9] = experiment: Induction of apoptosis in human HCT-116 cells assessed as viable cells at 10 uM after 24 hrs by Annexin V-FITC/PI staining based flow cytometric analysis (reference value: 90.34%); assay type: functional; settings: read-out: Activity
HCT-116 [10] = experiment: Induction of apoptosis in human HCT-116 cells assessed as viable cells at 3 uM after 24 hrs by Annexin V-FITC/PI staining based flow cytometric analysis (reference value: 90.34%); assay type: functional; settings: for viability at 3 µM: Homo sapiens, HCT-116, read-out: Activity
HCT-116 [11] = experiment: Inhibition of HDAC in human HCT-116 cells assessed as up regulation of acetylated histone H3 protein expression at 1.25 to 10 uM after 8 hrs by Western blot analysis; assay type: cell-based; settings: dose 1.25-10 µM
HCT-116 [12] = experiment: Inhibition of HDAC in human HCT-116 cells assessed as up regulation of acetylated tubulin protein expression at 1.25 to 10 uM after 8 hrs by Western blot analysis; assay type: cell-based; settings: dose 1.25-10 µM
HCT-116 [13] = experiment: Induction of apoptosis in human HCT-116 cells assessed as early apoptotic cells at 3 uM after 24 hrs by Annexin V-FITC/PI staining based flow cytometric analysis (reference value: 4.01%); assay type: functional
HCT-116 [14] = experiment: Induction of apoptosis in human HCT-116 cells assessed as necrotic cells at 1 uM after 24 hrs by Annexin V-FITC/PI staining based flow cytometric analysis (reference value: 0.51%); assay type: functional
HCT-116 [15] = experiment: Induction of cell cycle arrest in human HCT116 cells assessed as cell accumulation at S phase at 3 uM after 24 hrs by Rnase/PI staining based flow cytometric analysis (reference value: 25.2%); assay type: functional
HCT-116 [16] = experiment: Induction of apoptosis in human HCT-116 cells assessed as necrotic cells at 10 uM after 24 hrs by Annexin V-FITC/PI staining based flow cytometric analysis (reference value: 0.51%); assay type: functional
HCT-116 [17] = experiment: Induction of apoptosis in human HCT-116 cells assessed as early apoptotic cells at 1 uM after 24 hrs by Annexin V-FITC/PI staining based flow cytometric analysis (reference value: 4.01%); assay type: functional
HCT-116 [18] = experiment: Induction of apoptosis in human HCT-116 cells assessed as viable cells at 1 uM after 24 hrs by Annexin V-FITC/PI staining based flow cytometric analysis (reference value: 90.34%); assay type: functional; settings: for viability at 1 µM: Homo sapiens, HCT-116, read-out: Activity
HCT-116 [19] = experiment: Induction of cell cycle arrest in human HCT116 cells assessed as cell accumulation at G0/G1 phase at 3 uM after 24 hrs by Rnase/PI staining based flow cytometric analysis (reference value: 48.4%); assay type: functional

Row | Compound | IC50 (MCF7) [nM] | IC50 (Histone deacetylase 1) [nM] | IC50 (Histone deacetylase 2) [nM] | IC50 (HeLa) [nM] | IC50 (HCT-116 [1]) [nM] | IC50 (Histone deacetylase 8) [nM] | also measured
1 | COc1cccc(-c2ccc3c(NC(=O)CCCCCCC(=O)NO)n[nH]c3n2)c1 | 8600 | 2.4 | 5.3 | 3600 | 2700 | 3.3 | 
2 | COc1ccc(-c2ccc3c(NC(=O)CCCCCCC(=O)NO)n[nH]c3c2)cc1OC | 10900 | 3.4 | 4.6 | 21300 | 14600 | 3.2 | 
3 | COc1cccc(-c2ccc3c(NC(=O)CCCCCC(=O)NO)n[nH]c3c2)c1 | 7400 | 2.6 | 63 | 20100 | 10600 | 4.5 | 
4 | COc1ccccc1-c1ccc2c(NC(=O)CCCCCCC(=O)NO)n[nH]c2c1 | 5700 | 4.6 | 5.4 | 5900 | 2700 | 4.2 | 
5 | COc1cccc(-c2ccc3c(NC(=O)CCCCCCC(=O)NO)n[nH]c3c2)c1F | 2000 | 3.1 | 6 | 9800 | 7600 | 4.4 | 
6 | COc1cccc(-c2ccc3c(NC(=O)CCCC(=O)NO)n[nH]c3c2)c1 | 41500 | 76 | 168 | > 50000 | > 50000 | 54 | 
7 | CCOc1cccc(-c2ccc3c(NC(=O)CCCCCCC(=O)NO)n[nH]c3c2)c1 | 2400 | 2.1 | 4.2 | 10800 | 4200 | 3.4 | 
8 | COc1cc(OC)cc(-c2ccc3c(NC(=O)CCCCCCC(=O)NO)n[nH]c3c2)c1 | 55200 | 4.6 | 4.8 | 7300 | 9500 | 4.4 | 
9 | COc1ccc(F)c(-c2ccc3c(NC(=O)CCCCCCC(=O)NO)n[nH]c3c2)c1 | 4900 | 3 | 3.5 | 3300 | 7500 | 4.9 | 
10 | COc1cccc(-c2ccc3c(NC(=O)C4CCC(C(=O)NO)CC4)n[nH]c3c2)c1 (stereo unspecified) | > 50000 | 2420 | 4630 | > 50000 | 47400 | 3340 | 
11 | O=C(CCCCCCC(=O)Nc1ccccc1)NO [VORINOSTAT] | 800 |  |  |  | 4900 |  | Activity (HCT-116 [2]): 44.2%; Activity (HCT-116 [3]): 67.78%; Activity (HCT-116 [4]): 2.03%; Activity (HCT-116 [5]): 14.44%; Activity (HCT-116 [7]): 57.83%; Activity (HCT-116 [8]): 67.72%; Activity (HCT-116 [10]): 17.93%; Activity (HCT-116 [13]): 12.27%; Activity (HCT-116 [15]): 29.4%; Activity (HCT-116 [16]): 1.37%; Activity (HCT-116 [17]): 12.87%; Activity (HCT-116 [18]): 77.54%; Activity (HCT-116 [19]): 26.2%
12 | COc1cccc(-c2ccc3c(NC(=O)CCCCC(=O)NO)n[nH]c3c2)c1 | 4400 | 13 | 62 | 5800 | 23500 | 41 | 
13 | COc1ccc(-c2ccc3c(NC(=O)CCCCCCC(=O)NO)n[nH]c3n2)cc1 | 1200 | 6 | 9 | 4800 | 4100 | 7.2 | Activity (HCT-116 [2]): 23.9%; Activity (HCT-116 [3]): 7.8%; Activity (HCT-116 [4]): 0.24%; Activity (HCT-116 [5]): 5.75%; Activity (HCT-116 [7]): 5.52%; Activity (HCT-116 [8]): 13.34%; viability at 10 µM (HCT-116 [9]): 79.8%; viability at 3 µM (HCT-116 [10]): 89.1%; inhibition (HCT-116 [11]): Active; inhibition (HCT-116 [12]): Active; Activity (HCT-116 [13]): 2.89%; Activity (HCT-116 [14]): 0.31%; Activity (HCT-116 [15]): 26.1%; Activity (HCT-116 [16]): 1.1%; Activity (HCT-116 [17]): 2.34%; viability at 1 µM (HCT-116 [18]): 91.8%; Activity (HCT-116 [19]): 50%
14 | O=C(CCCCCCC(=O)Nc1n[nH]c2cc(-c3cccc(C(F)(F)F)c3)ccc12)NO | 47300 | 2.5 | 5 | 6000 | 2900 | 4.1 | 

The next lines start with results.

Row | IC50 (MCF7) [nM] | IC50 (Histone deacetylase 1) [nM] | IC50 (Histone deacetylase 2) [nM] | IC50 (HeLa) [nM] | IC50 (HCT-116 [1]) [nM] | IC50 (Histone deacetylase 8) [nM] | Compound | also measured
15 | 19100 | 1.9 | 3.9 | 3000 | 8100 | 3 | COc1cccc(-c2ccc3c(NC(=O)CCCCCCC(=O)NO)n[nH]c3c2)c1 | 
16 | 1000 | 3.1 | 3.6 | 4800 | 3900 | 3.3 | O=C(CCCCCCC(=O)Nc1n[nH]c2cc(-c3ccc(Cl)cc3)ccc12)NO | Activity (HCT-116 [2]): 44.1%; Activity (HCT-116 [3]): 64.75%; Activity (HCT-116 [4]): 0.86%; Activity (HCT-116 [5]): 12.32%; Activity (HCT-116 [6]): Dose-dependent effect; Activity (HCT-116 [7]): 46.29%; Activity (HCT-116 [8]): 61.98%; viability at 10 µM (HCT-116 [9]): 23.2%; viability at 3 µM (HCT-116 [10]): 24%; inhibition (HCT-116 [11]): Active; inhibition (HCT-116 [12]): Active; Activity (HCT-116 [13]): 10.36%; Activity (HCT-116 [14]): 2.41%; Activity (HCT-116 [15]): 29.7%; Activity (HCT-116 [16]): 2.47%; Activity (HCT-116 [17]): 8.73%; viability at 1 µM (HCT-116 [18]): 40.6%; Activity (HCT-116 [19]): 26.2%
17 | 8300 | 36.2 | 31.6 | 29500 | 7500 | 32.5 | O=C(CCCCCCC(=O)Nc1n[nH]c2cc(-c3ccsc3)ccc12)NO | 
18 | 40100 | 23 | 25.9 | 6900 | 12300 | 24.5 | O=C(CCCCCCC(=O)Nc1n[nH]c2cc(-c3ccncc3)ccc12)NO | 
19 | 5500 | 9.6 | 13.1 | 12500 | 10200 | 12.6 | O=C(CCCCCCC(=O)Nc1n[nH]c2cc(-c3ccccc3)ccc12)NO | 
20 | 2500 | 1.8 | 4.4 | 13800 | 4100 | 2.4 | O=C(CCCCCCC(=O)Nc1n[nH]c2cc(-c3ccccc3F)ccc12)NO | 
21 | 2200 | 2.7 | 5.2 | 8100 | 2600 | 4 | O=C(CCCCCCC(=O)Nc1n[nH]c2cc(-c3ccccc3Cl)ccc12)NO | 
22 | 27500 | 3.7 | 4 | 200 | 41800 | 3.8 | O=C(CCCCCCC(=O)Nc1n[nH]c2cc(-c3cccc(Cl)c3)ccc12)NO | 
